Assay results taken from US7659273B2, “Composition for accelerating bone fracture healing” (Mitsubishi Tanabe Pharma Corporation, priority 2001, dated 2010).

How the values were obtained:
[1] = tested on: rabbit costicartilage cells; experiment: Cartilage matrix (proteoglycan) production, Alcian blue staining (Experimental Examples 3 and 4); format: cell-based; conditions: summary of Tables 10 and 11
Description: Costicartilages were isolated from NZ line rabbit (Kitayama Labes., Co Ltd.; male; 4-week-old) and soaked into Hank's balanced salt solution (calcium- and magnesium-free; LifeTech Co., Ltd.; hereinafter, referred to as “HBSS”). One costicartilage and one costa were excised together, the adipose tissue and the muscle tissue were removed and then, the proliferating chondrocyte layer of costicartilage was excised. The collected proliferating chondrocyte layer was cut into sections with a surgical knife (FEATHER Safety Razor Co., Ltd.) and the all proliferating chondrocyte layer sections from 4 rabbits were combined in a centrifuge tube. To the centrifuge tube was added 40 ml of HBSS (pH 7.2) supplied with 0.1% tetrasodium ethylenediamine tetraacetate to obtain suspension of the proliferating chondrocyte layer sections, which was shaken at 37° C. for 20 minutes and centrifuged (1500 rpm, 10 minutes). The supernatant was aspirated off, and 40 ml of HBSS (pH 7.2) supplied with 0.2% trypsin was added to the tube to suspend the precipitates and shaken at 37° C. for 1 hour. The tube was centrifuged (1500 rpm, 10 minutes), and the supernatant was aspirated off. The precipitates were washed twice with HBSS, suspended in 100 ml of HBSS supplied with 0.1% collagenase (Wako Pure Chemical Industries, Ltd., 034-10533) and shaken at 37° C. for 3 hours. The content of the tube was passed through the Cell Strainer (pore size 40 μm) and the filtrate was divided into four centrifuge tubes. To each of all four tubes was added 40 ml of medium (α-MEM, LifeTech Co., Ltd.), and the tubes were centrifuged (1500 rpm, 10 minutes). The supernatant was aspirated off, and the resultant precipitates were collected in one tube with Pipetman. After addition of 40 ml of the same medium, the tube was re-centrifuged (1500 rpm, 10 minutes). Washing procedure comprising addition of medium followed by centrifugation was repeated additional three times. The precipitates were suspended in the same medium to give an about 5 ml suspension, and the cell number was counted.
The suspension of costicartilage cell described above was added to 24-well plate at 50,000 cells per well (day 1). […]
After removing the medium, cells in each well were fixed by addition of 1 ml of neutral buffer containing 4% paraformaldehyde and incubation for 30 minutes at room temperature. […] Absorbance at 620 nm was measured, and cartilage matrix amount (proteoglycan production amount) in each well was estimated, and proteoglycan production rate (%) of each test compound for vehicle (100%) was calculated.
The cartilage matrix (proteoglycan) production was determined using other compounds (compounds (52)-(55) and Compound (2) for comparison) in exactly the same manner as Experimental Example 3 above.

[2] = tested on: fibula fracture region of streptozotocin-induced diabetic rats; experiment: Acceleration of fracture healing in diabetic rat (Experimental Example 7); format: in vivo; conditions: Example 7-(1) microspheres; for Bone mineral content: 6 weeks after sutura, DXA at fracture region; for Breaking Energy / Breaking force: 6 weeks, three-point bending test
Description: CD (SD) IGS rats (Charles River Japan, Inc.; male; 7-week-old) were housed for seven days at room temperature (23±2° C.) and 55±15% humidity. During the housing period, the rats were free to access commercially available food (from Oriental Bio Service; CRF-1).
Streptozotocin (Sigma), which induce diabetes, was dissolved in citrate-buffered saline (pH 4.5) to obtain 0.05 M streptozocin solution and injected intravenously to each rat at 60 mg/kg. One week later, blood was collected from tail end and blood-glucose level was determined with a blood-glucose monitor (Molecular Devices; M-SPmax250). Based on the measurements, rats were divided into groups so that a significant difference in glucose level may not occur among groups. The average blood-glucose level was from 426.12 to 428.23 mg/dl.
Under ether anesthesia, the left-lower legs of rats were shaved and sterilized with 70% aqueous ethanol, fibulas were exposed with scissors and cut with nail scissors (Natsume Seisakusyo; B17). The cut sections of the fibula were re-matched with tweezers. For the test groups (12 rats/group), the drug-containing microspheres prepared in Example 7-(1), which contains 0.03 or 0.1 mg of Compound (2), were placed around the cutting site using spatula followed by suturing with silk thread. For the control group (12 rats/group), the same amount of drug-free microspheres prepared in Control Example 2 were placed around the cutting site using spatula followed by suturing with silk thread. Following the suturing, every animal was sterilized with 70% aqueous ethanol. After six weeks from the sutura, under ether anesthesia, rats were sacrificed by laparotomy with bleeding, and the fibulas were excised.
Eight fibulas were randomly selected from those excised at 6 weeks after sutura and subjected to DXA bone densitometer (from Aloka; DCS-600) to determine bone mineral density and bone mineral content at fracture region, (scanning width: 1 mm).
The fibula used in the determination of mineral content was subjected to a three-point bending test with bone strength tester (from Muromachi Kikai Co., Ltd.; TK-252C) to determine bone strength. Briefly, the fibula was supported by two supports apart from each other by 8 mm and the cut section was positioned at the middle of these supports, i.e., 4 mm apart from the respective two supports. Loading (3 mm/minute) from upper direction was kept on the middle point (fracture section) of fibula until fibula begins to fracture. The maximum pressure necessary to break the bone was defined as the breaking force. The total energy spent to break the bone was defined as the breaking energy.
Four fibulas excised at 6 weeks after sutura was photographed with micro focus magnification radiography system (Fuji Photo Film Co. Ltd.; μFX-1000; tube voltage: 25 kV; tube current: […]; 20 seconds).

## CCOc1cc2cc(CO)c(CO)c(-c3ccnc(-n4nc(-c5cccnc5)c5ccccc5c4=O)c3)c2cc1OCC [Compound (2)]
[1]
  cartilage matrix (proteoglycan) production promoting effect (in words): remarkable matrix production promoting effect
[2]; drug content 0.03 mg
  Bone mineral content: 13.69 ± 0.96 mg
  Breaking Energy: 1.53 ± 0.39 mJ
  Breaking force: 8.13 ± 1.20 N
[2]; drug content 0.1 mg
  Bone mineral content: 14.60 ± 0.69 mg
  Breaking Energy: 2.91 ± 0.82 mJ
  Breaking force: 11.75 ± 2.14 N
